Source: patent publication US20060009435A1, “Synthesis and powder preparation of fluticasone propionate” (priority 2004, published 2006)
Several values for one entry are separate records, joined by “and”; a condition that tells them apart may be missing. Equal values may be shown once. Entries after “also recorded” stand apart in the source; their conditions may differ. Read-outs that look alike come from different tables or passages of the source.

Assays:
Type in all cases: physicochemical
[1] = Observation of powder flow, agglomeration tendency and electrostatic charge
[2] = Particle size distribution by dynamic light scattering (Malvern Mastersizer 2000); settings: for particle size D(0.10) / particle size D(0.20) / particle size D(0.50) / particle size D(0.80) / particle size D(0.90) / particle size D(0.95) / particle size D(0.98) / particle size D(0.99) / particle size D(1.00): dynamic light scattering; for Particle size distribution D(v, 0.1), 0.1 quantile / Particle size distribution D(v, 0.5), 0.5 quantile / Particle size distribution D(v, 0.9), 0.9 quantile / Particle size distribution D(v, 0.95), 0.95 quantile: light scattering
Method: Particle size was measured on a dynamic light scattering device by Malvern model Mastersizer 2000, using a measuring range of 0.02-2000 μm, accuracy level of 1% at the median, helium neon laser as a red light source, and solid state light source as a blue light source. Particle size distributions are presented as the average particle size of specified percentiles, including the flanking 0.1 and 0.9 quantiles and the median 0.5 quantile of the overall particle size distribution versus volume curve.

[3] = SEM micrograph of particle shape
[4] = X-ray powder diffraction of the powder (crystalline or amorphous morphology)
Method: X-ray diffraction data were acquired using a PHILIPS X-ray diffractometer model PW1050-70 set at 40 kV, 28 mA, using 1.54178 Å (Kα), diversion slit of 1°, receiving slit of 0.2 mm, scattering slit of 1° and a graphite monochromator.

| Compound | Electrostatic charge of the powder [1] | Tendency to agglomerate [1] | Particle shape (SEM micrograph) [3] | Powder characteristics (flow and morphology of the powder) [1] | Particle size median [2] | particle size D(0.10) [2] [micron] | particle size D(0.20) [2] [micron] | particle size D(0.50) [2] [microns] | particle size D(0.80) [2] [microns] | particle size D(0.90) [2] [microns] | particle size D(0.95) [2] [microns] | particle size D(0.98) [2] [microns] | particle size D(0.99) [2] [microns] | particle size D(1.00) [2] [microns] | Particle size distribution D(v, 0.1), 0.1 quantile [2] [μ] | Particle size distribution D(v, 0.5), 0.5 quantile [2] | Particle size distribution D(v, 0.9), 0.9 quantile [2] | Particle size distribution D(v, 0.95), 0.95 quantile [2] [μ] | Morphology by X-ray powder diffraction pattern [4] | other results |
| --- | --- | --- | --- | --- | --- | --- | --- | --- | --- | --- | --- | --- | --- | --- | --- | --- | --- | --- | --- | --- |
| CCC(=O)O[C@]1(C(=O)SCF)[C@H](C)C[C@H]2[C@@H]3C[C@H](F)C4=CC(=O)C=C[C@]4(C)[C@@]3(F)[C@@H](O)C[C@@]21C [Example 12, fluticasone propionate] | tended to accumulate a considerable amount of static charge; also recorded: tended to accumulate a considerable amount of electrostatic charge | generally tended to agglomerate; also recorded: high tendency to agglomerate | irregular shape of the particles; also recorded: irregular jaggedly shaped particles | – | – | – | – | – | – | – | – | – | – | – | – | – | – | – | – | particle size distribution in words ([2]; air-jet milled, data not shown): either too many oversized particles or too many undersized particles; also recorded: unsatisfactory size distribution; Particle shape (SEM micrograph) ([3]; listed as Reference Example 12): irregular jaggedly shape |
| CCC(=O)O[C@]1(C(=O)SCF)[C@H](C)C[C@H]2[C@@H]3C[C@H](F)C4=CC(=O)C=C[C@]4(C)[C@@]3(F)[C@@H](O)C[C@@]21C [Example 13, fluticasone propionate] | did not exhibit any static electricity | did not exhibit a tendency to agglomerate; also recorded: did not exhibit any tendency to agglomerate; also recorded: that does not tend to agglomerate | regular spherical shape and have smooth surface; also recorded: uniform spherical shape | Free flowing crystalline powder | Particle size median: 2.21 microns | 0.95 | 1.31 | 2.21 | 3.43 | 4.23 | 4.96 | 5.82 | 6.37 | 8.11 | 0.95 | 2.21 μ | 4.23 μ | 4.96 | crystalline morphology | – |
| CCC(=O)O[C@]1(C(=O)SCF)[C@H](C)C[C@H]2[C@@H]3C[C@H](F)C4=CC(=O)C=C[C@]4(C)[C@@]3(F)[C@@H](O)C[C@@]21C [Example 14, fluticasone propionate] | – | did not exhibit a tendency to agglomerate; also recorded: that does not tend to agglomerate | – | Free flowing crystalline powder | Particle size median: 2.14 microns; | 0.96 | 1.27 | 2.14 | 3.44 | 4.36 | 5.27 | 6.44 | 7.32 | 13.54 | 0.96 | 2.14 μ | 4.36 μ | 5.27 | – | – |
| CCC(=O)O[C@]1(C(=O)SCF)[C@H](C)C[C@H]2[C@@H]3C[C@H](F)C4=CC(=O)C=C[C@]4(C)[C@@]3(F)[C@@H](O)C[C@@]21C [Example 15, fluticasone propionate] | – | did not exhibit a tendency to agglomerate; also recorded: that does not tend to agglomerate | – | Free flowing crystalline powder | Particle size median 2.67 microns; | 1.06 | 1.52 | 2.67 | 4.51 | 5.95 | 7.51 | 9.81 | 11.67 | – | 1.06 | 2.67 μ | – | – | – | – |
| CCC(=O)O[C@]1(C(=O)SCF)[C@H](C)C[C@H]2[C@@H]3C[C@H](F)C4=CC(=O)C=C[C@]4(C)[C@@]3(F)[C@@H](O)C[C@@]21C [Example 16, fluticasone propionate] | – | – | – | Partially amorphous powder | Particle size median 4.10 microns; | 1.90 | 2.46 | 4.11 | 6.70 | 8.40 | 9.86 | 11.35 | 12.10 | 14.24 | 1.90 | 4.11 μ and 4.10 μ | 8.40 μ and 8.39 μ | 9.86 | low level of a crystalline morphology; also recorded: mostly amorphous morphology | particle size of the powder [2]: less than 10 microns |
